Laboratory results published in publication PMC9854573, “Baicalein Attenuates Brain Iron Accumulation through Protecting Aconitase 1 from Oxidative Stress in Rotenone-Induced Parkinson’s Disease in Rats” (Antioxidants, 2022).

Key:
[1] = molecular target: T1, ACO1 (recombinant human ACO1 protein) (Homo sapiens, UniProt P21399); test: surface plasmon resonance (Biacore X100, CM5 chip); assay type: binding
T1 construct: immobilised on CM5 chip at pH 4.0
T1 sequence (P21399 1-889): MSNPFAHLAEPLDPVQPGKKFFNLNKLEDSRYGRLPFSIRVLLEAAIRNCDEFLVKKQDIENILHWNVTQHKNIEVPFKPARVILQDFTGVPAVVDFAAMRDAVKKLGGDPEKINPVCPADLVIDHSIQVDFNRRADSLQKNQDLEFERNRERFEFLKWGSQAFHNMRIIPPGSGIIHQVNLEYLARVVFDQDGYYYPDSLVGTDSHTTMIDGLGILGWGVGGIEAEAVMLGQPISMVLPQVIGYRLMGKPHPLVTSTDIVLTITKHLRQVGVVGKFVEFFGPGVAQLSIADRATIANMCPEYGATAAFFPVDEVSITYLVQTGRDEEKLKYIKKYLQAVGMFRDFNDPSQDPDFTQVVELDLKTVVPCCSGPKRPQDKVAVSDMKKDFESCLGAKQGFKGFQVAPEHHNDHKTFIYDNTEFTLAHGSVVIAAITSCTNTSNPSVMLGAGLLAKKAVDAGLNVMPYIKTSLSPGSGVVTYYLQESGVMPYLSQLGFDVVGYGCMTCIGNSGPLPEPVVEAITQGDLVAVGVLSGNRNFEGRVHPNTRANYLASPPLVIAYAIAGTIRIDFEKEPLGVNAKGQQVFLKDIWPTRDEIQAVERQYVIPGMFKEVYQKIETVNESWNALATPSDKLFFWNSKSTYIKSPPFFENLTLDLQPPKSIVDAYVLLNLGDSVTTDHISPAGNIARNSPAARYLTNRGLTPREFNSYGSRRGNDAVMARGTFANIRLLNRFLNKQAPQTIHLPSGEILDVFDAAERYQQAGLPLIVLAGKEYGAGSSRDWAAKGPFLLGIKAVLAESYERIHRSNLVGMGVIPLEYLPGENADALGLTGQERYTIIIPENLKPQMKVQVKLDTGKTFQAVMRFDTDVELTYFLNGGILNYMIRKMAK

[2] = molecular target: T2, ACO1 (aconitase activity of rat heart homogenate supernatant); test: aconitase activity, absorbance of aconitate at […] nm; assay type: biochemical; conditions: 10 min preincubation, citrate 4 μM, 100 μg protein, Tris-HCl 20 mM pH 7.4, room temperature, no oxidant
T2 construct: crude rat heart homogenate, 12,000 x g supernatant

O=c1cc(-c2ccccc2)oc2cc(O)c(O)c(O)c12 [baicalein, 5,6,7-trihydroxyflavone] gave a Kd [1] of 198 µM and an IC50 [2] of 166 µM.
